Data as given in US20240336571A1, “NOVEL CYCLOPROPYL COMPOUNDS” (ICAGEN, LLC, priority 2021, published 2024).

Molecular target: human Kv7.2 (Homo sapiens (Human), UniProt O43526)
Assay: SyncroPatch 384 electrophysiology, activation of Kv7.2 in CHO cells
Format: cell-based
Conditions: for EC50: CHO cells stably expressing human Kv7.2, potassium current at -90 mV repolarizing step, in presence of zinc pyrithione; for Emax: CHO
Method: The potency of Kv7 potentiators was determined using the SyncroPatch 384 (Nanion) high throughput electrophysiology platform.
CHO cells stably expressing either human Kv7.2, Kv7.4 or Kv7.5/7.3 under a constitutive CMV promoter were used for these studies. Cells were maintained in F12 Hams+1 mM L-glutamine (Hyclone) supplemented with 10% FBS (Sigma), 0.3×NEAA (Non-essential Gamino-acids) and 400 ug/ml G418 at 37° C. in 5% CO2. Cells were cultured in T-225 flasks (Nunc) for 2-3 days to reach 85-95% confluence prior to electrophysiological recording.
Earle's balanced salt solution (in mM): 135 NaCl, 5.4 KCl, 5 Glucose, 2 CaCl2, 1 MgCl2, 5 HEPES, pH 7.4. Seal enhancer solution (in mM): 90 NaCl, 3 KCl, 35 CaCl2, 10 MgCl2, 10 HEPES, pH 7.4. Extracellular recording solution (in mM): 71 NaCl, 70 NMDG, 13 KCl, 5 Glucose, 2 CaCl2, 1 MgCl2, 10 HEPES, pH 7.4. Intracellular recording solution (in mM): 130 KF, 20 KCl, 4 EGTA, 10 HEPES, 2 EDTA, 0.01 Escin, pH 7.2.
Cells were harvested for electrophysiological recording upon reaching appropriate confluence. Cells were first washed in DPBS (Hyclone, Cat #SH30028.03) and then 2 ml of Accutase (MP Biomedicals #1000449) was added at 28° C. until ˜90% of cells were suspended. F12 HAM's media+1 mM L-glutamine (Hyclone, SH30026.02) was then added to the flask to dilute the accutase. Cells were then triturated until a single cell suspension was achieved, a cell count was performed, and cells were centrifuged for 2 min. at 1,000 rpm. Media was then aspirated, and cells were resuspended in Earle's balanced salt solution to a concentration of 0.75×10^6 cells/ml and allowed to recover for 25 min at 10° C.
At the beginning of each assay, 20 μl of cell suspension was dispensed into each well of a multi-hole 384-well SyncroPatch chip by the onboard pipettor. Cell sealing was initiated, and seal enhancer solution was added to facilitate seal formation. Upon completion of sealing, cells were washed 3 times with extracellular recording solution and the assay voltage protocol was started. Human Kv7.2, Kv7.4 or Kv7.5/7.3 channels were evaluated using a voltage protocol in which cells were voltage-clamped at a holding potential of −60 mV. Potassium currents were continuously activated with a series of three voltage steps to −30 mV for 3 seconds, 40 mV for 1 second and −90 mV for 4 seconds with 12 seconds between successive voltage sweeps. Potassium currents were measured from the −90 mV repolarizing step. Baseline current was assessed for 3.5 minutes prior to the addition of 5.6 μM zinc pyrithione (1 μM for Kv7.4). Kv7.2, Kv7.4 or Kv7.5/7.3 current in the presence of zinc pyrithione was acquired over five minutes to allow channels to reach steady state activity prior to addition of test agents. Channel activity was monitored for three minutes preceding the addition of 30 μM ML-213 (3 minutes) to achieve maximum activation. 150 mM TEA with 10 μM XE-991 was applied for 2 minutes to measure the leak current during maximum inhibition of Kv7.2, Kv7.4 or Kv7.5/7.3 channels.
Data were collected on the SyncroPatch platform using PatchControl software (Nanion) and processed and analyzed using DataControl Software (Nanion). Percent activation was calculated from potassium current as follows: The average current for the 5 sweeps in the presence of zinc pyrithione immediately preceding test agent addition was taken as the ‘control’ data. Likewise, the average potassium current in the presence of test agents 5 sweeps immediately preceding addition of 30 μM ML-213 was determined for ‘drug’ data. The average potassium current 5 sweeps immediately prior to addition of 150 mM TEA+10 μM XE-991 was determined for ‘max activation’ data while average currents from 5 sweeps immediately following addition of TEA was determined for ‘max inhibition’ data. Percent activation for each of the 384-wells of a sealchip was calculated as ((‘drug’−‘max inhibition’)/(‘max activation’−‘max inhibition’))*100 with Pipeline Pilot (Accelrys). […]

[1] = Kv7.2 activation max %, relative to 30 μM ML-213 max activation

Compound	EC50	Emax [1]	Kv7.2 Emax [1]
C[C@@H](NC(=O)N[C@@H]1C[C@H]1c1ccccc1)c1ccnc(OC(F)F)c1 (stereo in doubt) [Example 38]	3810 nM	42%	–
O=C(NCc1cc(OC(F)F)ncn1)N[C@H]1C[C@@H]1C(F)(F)F [Example 52, 1-[[6-(difluoromethoxy)pyrimidin-4-yl]methyl]-3-[(1S,2S)-2-(trifluoromethyl)cyclopropyl]urea]	1000 nM	43%	–
N#Cc1ccnc(CNC(=O)N[C@@H]2C[C@H]2c2ccccc2)c1 [Example 1, 1-[(4-cyanopyridin-2-yl)methyl]-3-[(1R,2S)-2-phenylcyclopropyl]urea]	4680 nM	73%	–
N#Cc1cccc(CNC(=O)N[C@@H]2C[C@H]2c2ccccc2)n1 [Example 18, 1-[(6-cyanopyridin-2-yl)methyl]-3-[(1R,2S)-2-phenylcyclopropyl]urea]	3020 nM	62%	–
COc1cc(CNC(=O)N[C@@H]2C[C@H]2c2ccccc2)ccn1 (racemic) [Example 5, 1-[(2-methoxypyridin-4-yl)methyl]-3-[rac-(1R,2S)-2-phenylcyclopropyl]urea]	3750 nM	44%	–
O=C(NCc1ccnc(C(F)F)c1)N[C@@H]1C[C@H]1c1ccccc1 [Example 21, 1-[[2-(difluoromethyl)pyridin-4-yl]methyl]-3-[(1R,2S)-2-phenylcyclopropyl]urea]	3200 nM	72%	–
C[C@]1(C(F)(F)F)C[C@@H]1NC(=O)NCc1ccnc(OC(F)F)c1 (racemic) [Example 47, 1-[[2-(difluoromethoxy)pyridin-4-yl]methyl]-3-[rac-(1R,2R)-2-methyl-2-(trifluoromethyl)cyclopropyl]urea]	50 nM	77%	–
O=C(NCc1ccnc(-n2ccc(C(F)(F)F)n2)c1)N[C@@H]1C[C@H]1c1ccccc1 [Example 39, 1-[(1R,2S)-2-phenylcyclopropyl]-3-[[2-[3-(trifluoromethyl)pyrazol-1-yl]pyridin-4-yl]methyl]urea]	70 nM	78%	–
O=C(NCc1ccnc(-c2cnsc2)c1)N[C@@H]1C[C@H]1C1CCCCC1 (racemic) [Example 40, 1-[rac-(1R,2S)-2-cyclohexylcyclopropyl]-3-[[2-(1,2-thiazol-4-yl)pyridin-4-yl]methyl]urea]	780 nM	57%	–
COc1cc(CNC(=O)N[C@@H]2C[C@H]2c2ccccc2)ccn1 [Example 9, 1-[(2-methoxypyridin-4-yl)methyl]-3-[(1R,2S)-2-phenylcyclopropyl]urea]	3410 nM	78%	–
O=C(NCc1ccnc(-c2cnco2)c1)N[C@@H]1C[C@H]1C1CCCCC1 (racemic) [Example 23, 1-[[2-(1,3-oxazol-5-yl)pyridin-4-yl]methyl]-3-[rac-(1R,2S)-2-cyclohexylcyclopropyl]urea]	920 nM	63%	–
C[C@H](NC(=O)N[C@@H]1C[C@H]1c1ccccc1)c1ccnc(OC(F)F)c1 [Example 30, 1-((S)-1-(2-(difluoromethoxy)pyridin-4-yl)ethyl)-3-((1R,2S)-2-phenylcyclopropyl)urea]	210 nM	72%	–
O=C(NCc1ccnc(OC(F)F)c1)N[C@@H]1C[C@H]1C1CCCO1 (mixture of isomers) [Example 43, 1-[[2-(difluoromethoxy)pyridin-4-yl]methyl]-3-[rac-(1R,2R)-2-(oxolan-2-yl)cyclopropyl]urea]	8010 nM	61%	–
O=C(NCc1ccnc(-n2cnc(C(F)(F)F)c2)c1)N[C@@H]1C[C@H]1C1CCCCC1 (racemic) [Example 24, 1-[rac-(1R,2S)-2-cyclohexylcyclopropyl]-3-[[2-[4-(trifluoromethyl)imidazol-1-yl]pyridin-4-yl]methyl]urea]	160 nM	45%	–
O=C(NCc1ccnc(OC(F)F)c1)N[C@@H]1C[C@H]1C(F)(F)F [Example 41, 1-[[2-(difluoromethoxy)pyridin-4-yl]methyl]-3-[(1R,2R)-2-(trifluoromethyl)cyclopropyl]urea]	230 nM	54%	–
CC(F)(F)[C@@H]1C[C@H]1NC(=O)NCc1ccnc(OC(F)F)c1 (racemic) [Example 44, 1-[[2-(difluoromethoxy)pyridin-4-yl]methyl]-3-[rac-(1R,2R)-2-(1,1-difluoroethyl)cyclopropyl]urea]	330 nM	40%	–
O=C(NCc1ccnc(Cl)c1)N[C@@H]1C[C@H]1C1CCCCC1 (racemic) [Example 17, 1-[(2-chloropyridin-4-yl)methyl]-3-[rac-(1R,2S)-2-cyclohexylcyclopropyl]urea]	1760 nM	61%	–
O=C(NCc1ccnc(OC2CCOCC2)c1)N[C@@H]1C[C@H]1c1ccccc1 [Example 20, 1-[[2-(oxan-4-yloxy)pyridin-4-yl]methyl]-3-[(1R,2S)-2-phenylcyclopropyl]urea]	5930 nM	58%	–
C[C@H]1[C@H](NC(=O)NCc2ccnc(OC(F)F)c2)C1(F)F (racemic) [Example 42, 1-[[2-(difluoromethoxy)pyridin-4-yl]methyl]-3-[rac-(1R,3R)-2,2-difluoro-3-methylcyclopropyl]urea]	1030 nM	58%	–
[2H]C([2H])(NC(=O)N[C@@H]1C[C@H]1C(F)(F)F)c1ccnc(OC(F)F)c1 (racemic) [Example 50, 1-[dideuterio-[2-(difluoromethoxy)pyridin-4-yl]methyl]-3-[rac-(1R,2R)-2-(trifluoromethyl)cyclopropyl]urea]	620 nM	47%	–
O=C(NCc1ccnc(-n2ccnc2)c1)NC1CC1C1CCCCC1 (stereo not drawn) [Example 11, 1-(2-cyclohexylcyclopropyl)-3-[(2-imidazol-1-ylpyridin-4-yl)methyl]urea]	2140 nM	52%	–
1-[(1S,2R)-2-cyclohexylcyclopropyl]-3-[(2-imidazol-1-ylpyridin-4-yl)methyl]urea [Example 15]	1570 nM	–	56%
CC(C)c1nccc(CNC(=O)N[C@@H]2C[C@H]2C2CCCCC2)n1 (racemic) [Example 4, 1-[(2-propan-2-ylpyrimidin-4-yl)methyl]-3-[rac-(1R,2S)-2-cyclohexylcyclopropyl]urea]	4400 nM	71%	–
O=C(NCc1ccnc(OC(F)F)c1)N[C@@H]1C[C@H]1c1ccccc1 [Example 7, 1-[[2-(difluoromethoxy)pyridin-4-yl]methyl]-3-[(1R,2S)-2-phenylcyclopropyl]urea]	100 nM	71%	–
O=C(NCc1ccnc(C(F)(F)F)c1)N[C@@H]1C[C@H]1c1ccccc1 [Example 22, 1-[(1R,2S)-2-phenylcyclopropyl]-3-[[2-(trifluoromethyl)pyridin-4-yl]methyl]urea]	720 nM	53%	–
O=C(NCc1ccnc(OC(F)(F)F)c1)N[C@@H]1C[C@H]1c1ccccc1 [Example 28, 1-[(1R,2S)-2-phenylcyclopropyl]-3-[[2-(trifluoromethoxy)pyridin-4-yl]methyl]urea]	1360 nM	62%	–
CC(F)(F)c1cc(CNC(=O)N[C@@H]2C[C@H]2c2ccccc2)ccn1 [Example 26, 1-[[2-(1,1-difluoroethyl)pyridin-4-yl]methyl]-3-[(1R,2S)-2-phenylcyclopropyl]urea]	1560 nM	97%	–
